Patent publication US12098395B2, “Polypeptide with function of targeting recognition of immune cells and application thereof” (Keyangle Life Technology Co., Ltd., priority 2018, dated 2024)
No end group written: not given here. code X = not defined here

Assays:
[1] = system: mouse peritoneal macrophages; experiment: In vivo fluorescent labeling of macrophages in a mouse abdominal cavity; design: species or system Kunming mice; conditions: for recognition of macrophages in vivo: conclusion from Table 1, mouse peritoneal macrophages; for fluorescent labeling of macrophages extracted from the mouse abdominal cavity: labeled in vivo by intraperitoneal injection, cells extracted after 4 hours, Nucblue double-stain
Experimental: Dilute 300 μL of 50 μM EK24 fluorescent probe solution with serum-free DMEM incomplete medium to obtain 1 mL of solution, then inject into the abdominal cavity of 5-8 weeks old Kunming mice. After 4 hours, inject 5 mL of 1×PBS and massage. After 10 minutes, sacrifice the mice by cervical vertebra dislocation. Cut the abdominal cavity skin of the mice, pierce the abdominal wall muscle by a syringe, and extract the fluid in the abdominal cavity of the mice. Centrifuge the extracted peritoneal fluid at 1000 rpm for 5 min, wash twice with 1×PBS. Add appropriate amount of cells to a 96-well plate and double-stain with a nuclear dye Nucblue (Invitrogen). Observe under fluorescence microscope (light source 10%, exposure 200 ms, gain 5) after the suspended cells were settled down at the bottom of the plate.
Table 1 lists probes, which contain the polypeptide fragments from the C-terminal fragments of Triokinases/FMN cyclases of different species and were prepared by a similar process as described in Examples 1 and 2, and in vivo imaging results of mouse peritoneal macrophages using these probes.

[2] = system: mouse macrophage cell line RAW264.7; experiment: In vitro fluorescence labeled staining of a mouse macrophage cell line; type: cell-based; conditions: 10 μM probe, 1 h incubation
Experimental: Culture the mouse macrophage cell line RAW264.7 in a 96-well plate, wash the wells once with 1×PBS buffer or a serum-free DMEM incomplete medium, remove the washing liquid, add EK24 solution of 10 μM which had been diluted with 100 μL of serum-free DMEM incomplete medium, and incubate in a cell culture incubator for 1 h. After that, wash the wells twice with 1×PBS buffer or the serum-free DMEM incomplete medium. Then, add DMEM complete medium containing 10% FBS and 1% streptomycin-penicillin, and double-stain the cells using nuclear dye Nucblue, and observe under EVOS® FL Auto fluorescence microscope (Life Technologies, light source 10%, exposure 200 ms, gain 5).

[3] = system: bone marrow monocyte precursors of New Zealand White Rabbit; experiment: In vitro fluorescent labeling of primary monocyte precursors of New Zealand White Rabbit; type: cell-based
From the text: With a similar process to Example 7, bone marrow monocyte precursors of New Zealand White Rabbit were taken and cultured, then labeled by using EK24 fluorescent probe and Nucblue. Then the cells were observed under a fluorescence microscope (20×, light source 10%, exposure 200 ms, gain 5).

[4] = system: primary macrophages from rat peritoneal cavity; experiment: In vitro fluorescent labeling of primary macrophages from rat peritoneal cavity; type: cell-based, SD rats; conditions: cultured more than 2 days
Experimental: With the same process as in Example 5, extract cells from the abdominal cavity of 5 to 8 weeks old SD rats using 20 mL serum-free DMEM incomplete medium and culture the cells in a 96-well plate. After culturing for more than 2 days, until the cells attached the bottom firmly, a well was selected and added with EK24 fluorescent probe for incubation. Then the cells were observed under a fluorescence microscope (20×, light source 10%, exposure 200 ms, gain 5).

[5] = system: cultured peritoneal macrophages and mesenteric digestive cells; experiment: Selective labeling of cultured peritoneal macrophages among cells released from enzyme-digested mesenterium; type: cell-based, Kunming mice; conditions: peritoneal cells and trypsin-digested mesenteries cultured 3 days
Experimental: Take 5 to 8 week-old Kunming mice, inject intraperitoneally with 5 mL of serum-free DMEM incomplete medium. After 1 hour, sacrifice the mice by cervical vertebra dislocation. Make an incision on the skin of abdominal cavity, pierce the abdominal wall muscle using a syringe, and extract the fluid in the abdominal cavity of the mice. Wash twice with 1×PBS, collect peritoneal cells by centrifugation. Also take the mesenteries of the Kunming mice and purge twice with 1×PBS in centrifuge tubes. Incubate the obtained peritoneal cells and mesenteries in 0.25% trypsin solution and digest for 30 minutes. Enrich the cells by centrifugation, and then culture for 3 days in a 96-well plate using F12/DMEM culture solution containing 10% FBS and 1% streptomycin-penicillin. Referring to Example 5, label with the EK24 fluorescent probe and Nucblue. Then the cells were observed under a fluorescence microscope (20×, light source 10%, exposure 200 ms, gain 5).

[6] = system: cultured macrophages isolated from mouse peritoneal cavity; experiment: In vitro fluorescent labeling of cultured macrophages isolated from mouse peritoneal cavity, co-staining with F4/80 antibody; type: cell-based; conditions: 10 μM EK24 premixed with F4/80 antibody, 1 h at 37° C.
Experimental: Inject 5 mL of serum-free DMEM incomplete medium into the abdominal cavity of 5 to 8 weeks old mice, massage the abdominal cavity gently for 10 min, and sacrifice the mice by cervical vertebra dislocation. Extract the fluid from the abdominal cavity gently with a syringe, inject into a 5 mL centrifuge tube and centrifuge at 1000 rpm for 5 min, remove the supernatant, and resuspend the collected ex-vivo cells in DMEM/F12 medium containing 10% FBS, then add into a 96-well plate for culture. Generally, if cells are taken intraperitoneally for in vitro culture, macrophages would tend to adhere to bottom of the well, and other cells would be washed off. The cells were cultured for more than 2 days until the cells attached the bottom firmly. At this time, the cells remaining in the wells were basically macrophages. Select two wells, one as a control and the other as an experimental well. The cells of the control were nuclear stained with Nucblue. The experimental well was added with a premix of AlexaFluor®488 anti-mouse F4/80 antibody (Biolegend) and EK24 fluorescent probe, and then incubated for 1 h at 37° C. The premix contained 10 μM of EK24 solution and 2 μL of Alexa Fluor®488 anti-mouse F4/80 antibody diluted with 100 μL of serum-free DMEM incomplete medium. […] The cells were observed under a fluorescence microscope (20×objective lens, light source 10%, exposure 200 ms, gain 5).

[7] = system: macrophages on mouse abdominal wall; experiment: In vivo fluorescent labeling of macrophages on mouse abdominal wall with CD68 antibody co-staining; conditions: in vivo injection, abdominal wall muscle removed
Experimental: Referring to Example 4, using the same drug injection process, inject EK24, and FITC anti-mouse CD68 antibody (Biolegend) which was diluted with PBS from 2 μL to 500 μL. Remove mouse abdominal wall muscle for Nucblue double-staining and then observing under a fluorescence microscope (20×, light source 50%, exposure 200 ms, gain 5).

[8] = system: monocyte precursors from rat bone marrow; experiment: In vitro fluorescent labeling of rat primary monocyte precursors; type: cell-based
From the text: With a similar process to Example 7, mononuclear cell precursors from rat femoral bone marrow were taken and cultured, and then labeled by using EK24 fluorescent probe and Nucblue. Then the cells were observed under a fluorescence microscope (20×, light source 10%, exposure 200 ms, gain 5).

[9] = system: monocyte precursors from mouse bone marrow; experiment: Fluorescence labeling of mouse primary monocyte precursors at different incubation times; type: cell-based; conditions: incubating only for 10 min
Experimental: Referring to Example 7, using the same treatment process, the monocyte precursors from mouse bone marrow were obtained. After culturing for 6 days, the cultured cells were labeled with […] fluorescent probe over different incubation times. Then the cells were observed under a fluorescence microscope (20×, light source 20%, exposure 200 ms, gain 5).
Nucblue was further used for nuclear staining. In each of FIGS. 18A, 18B, 18C, and 18D, i) is an image labeled with the […] fluorescent probe (shown in red in the original fluorescence color image), and ii) is an image obtained by nuclear staining with Nucblue (shown in blue in the original fluorescence color image), and iii) is a merged image of i) and ii).

EQPDPGAVAAAAILRAILEVLQS-Y (not fully specified (C-terminus)) [EK24, Human/rhesus Triokinase/FMN cyclase C-terminal peptide; Y is lysine plus rhodamine fluorescent labeling group on the lysine side chain]
recognition of macrophages in vivo [1]: can effectively recognize macrophages in vivo | fluorescent labeling of macrophages extracted from the mouse abdominal cavity [1]: can be labeled | fluorescent labeling of RAW264.7 cells [2]: can be labeled | labeling of monocyte precursors from New Zealand White Rabbit bone marrow mesenchyme [3]: capable of labeling | labeling of in vitro cultured primary macrophages from rat peritoneal cavity [4]: can effectively label | staining of macrophages in mixed culture [5]: only stains macrophages | staining of non-macrophages in mixed culture [5]: not stain non-macrophages | co-localization of probe label with F4/80 antibody label [6]: co-localized on the same cells | labeling of macrophages on mouse abdominal wall [7]: can be labeled | labeling of other cells of mouse abdominal wall [7]: cannot be labeled | labeling of monocyte precursors from rat bone marrow mesenchyme [8]: capable of labeling

X-TKNMEAGAGRASYISSARLEQPDPGAVAAAAILRAILEVLQS ({code X}-TKNMEAGAGRASYISSARLEQPDPGAVAAAAILRAILEVLQS; reading uncertain; also: N-terminal reporter X, nature not defined) [TS42, Human Triokinase/FMN cyclase C-terminal peptide probe, X = reporter or cysteine/lysine + reporter]
recognition of macrophages in vivo [1]: can effectively recognize macrophages in vivo | fluorescent labeling of macrophages extracted from the mouse abdominal cavity [1]: can be labeled

LEQPDPGAVAAAAILRAILE-Y (LEQPDPGAVAAAAILRAILEY; also: C-terminal reporter Y, nature not defined) [LEK21, Human Triokinase/FMN cyclase C-terminal peptide probe, Y = reporter or cysteine/lysine + reporter]
recognition of macrophages in vivo [1]: can effectively recognize macrophages in vivo | fluorescent labeling of macrophages extracted from the mouse abdominal cavity [1]: can be labeled

X-DQPDPGAVAAAAILRTILEVLQSQGV ({code X}-DQPDPGAVAAAAILRTILEVLQSQGV; reading uncertain; also: N-terminal reporter X, nature not defined) [d-KV27, Dog Triokinase/FMN cyclase C-terminal peptide probe, X = reporter or cysteine/lysine + reporter]
recognition of macrophages in vivo [1]: can effectively recognize macrophages in vivo | fluorescent labeling of macrophages extracted from the mouse abdominal cavity [1]: can be labeled

X-KNMEAGAGRASYISSARLEQPDPGAVAAAAILRAIL ({code X}-KNMEAGAGRASYISSARLEQPDPGAVAAAAILRAIL; reading uncertain; also: N-terminal reporter X, nature not defined) [KnNL36, Human Triokinase/FMN cyclase C-terminal peptide probe, X = reporter or cysteine/lysine + reporter]
recognition of macrophages in vivo [1]: can effectively recognize macrophages in vivo | fluorescent labeling of macrophages extracted from the mouse abdominal cavity [1]: can be labeled

LQPDPGAVAAAAVLRAVLEGLQG-Y (LQPDPGAVAAAAVLRAVLEGLQGY; also: C-terminal reporter Y, nature not defined) [LK24, Chicken Triokinase/FMN cyclase C-terminal peptide probe, Y = reporter or cysteine/lysine + reporter]
recognition of macrophages in vivo [1]: can effectively recognize macrophages in vivo | fluorescent labeling of macrophages extracted from the mouse abdominal cavity [1]: can be labeled

X-DQPDPGAVAAAAILRAILEVLQSQGA ({code X}-DQPDPGAVAAAAILRAILEVLQSQGA; reading uncertain; also: N-terminal reporter X, nature not defined) [b-KA27, Pig and cattle Triokinase/FMN cyclase C-terminal peptide probe, X = reporter or cysteine/lysine + reporter]
recognition of macrophages in vivo [1]: can effectively recognize macrophages in vivo | fluorescent labeling of macrophages extracted from the mouse abdominal cavity [1]: can be labeled

X-EDQPDPGAVAAAAILRAILEVLQS ({code X}-EDQPDPGAVAAAAILRAILEVLQS; reading uncertain; also: N-terminal reporter X, nature not defined, printed as X-EDQPDPGAVAAAAILRAILEVLQS) [KS24, Human Triokinase/FMN cyclase C-terminal peptide probe, X = reporter or cysteine/lysine + reporter (rhodamine or FITC)]
fluorescence detection with microscope [9]: can be even detected | recognition of macrophages in vivo [1]: can effectively recognize macrophages in vivo | fluorescent labeling of macrophages extracted from the mouse abdominal cavity [1]: can be labeled

X-DQPDPGAVAAAAIFRAILEVLQTKAA ({code X}-DQPDPGAVAAAAIFRAILEVLQTKAA; reading uncertain; also: N-terminal reporter X, nature not defined) [r-KA27, Rat Triokinase/FMN cyclase C-terminal peptide probe, X = reporter or cysteine/lysine + reporter]
recognition of macrophages in vivo [1]: can effectively recognize macrophages in vivo | fluorescent labeling of macrophages extracted from the mouse abdominal cavity [1]: can be labeled
